In patent US8618122B2, “Compound having acidic group which may be protected, and use thereof” (Ono Pharmaceutical Co., Ltd., priority 2006, dated 2013):

How the values were obtained:
[1] = tested on: CHL/IU (cell line derived from a Chinese hamster lung); test: Phospholipidosis detecting system using fluorescent labeling phospholipid analog (NBD-PE); type: cell-based; details: for Rate of increase of phopholipid accumulation (%): compound dose: 100 μM, CHL/IU cells, NBD-PE, about 24 hours; for Determination: positive if 25% or more of maximum increase rate of amiodarone
Method: 100 μL/well as required (1 dose 2 wells) of cell suspension of CHL/IU (cell line derived from a Chinese hamster lung) (7×10^4 cells/mL) prepared by MEM (minimum essential medium) culture medium was added to a 96-well plate (96-well clear-bottom plate), and cultured for about 24 hours. After culture, the supernatant of the 96-well plate was removed, and the 100 μL/well compounds of each concentration dissolved and suspended in an MEM including 25 μmol/L nitrobenzoxadiazole dipalmitoyl phosphatidylethanolamine (NBD-PE) (hereinafter abbreviated as a NPD-PE medium) were added and treated for about 24 hours. The treatment concentrations of each compound were set to be 6.25, 12.5, 25, 50 and 100 μmol/L. The positive control substance was set to be amiodarone hydrochloride, and the treatment concentrations were set to be 1.25, 2.5, 5, 10 and 20 μmol/L. In addition, 5-well untreated controls (only MEM) and 5-well NBD-PE controls (made by means of adding a 1/100 amount of DMSO to the NBD-PE culture medium) were set per compound, and cultured in the same manner. After finishing the culture, the cultures were washed twice with phosphate buffered saline (hereinafter abbreviated as PBS) (−) 100 μL/well, and the MEM (100 μL) was added to all of the treatment wells including two empty wells for WST-1 background controls and cultured for about a half hour. The fluorescence intensities of each well were measured by using a microplate reader (manufactured by Molecular Devices Inc., SPECTRA max M2; the excitation wavelength 485 nm/fluorescence wavelength 535 nm). Using the average values of each dose×2 wells, a phospholipid increase rate (%) to the NBD-PE control was calculated by using the following calculating formula: Rate of increase of pholipid accumulation (%)=100×{(test compound fluorescence intensity−non-treated control fluorescence intensity)/(NBD-PE control fluorescence intensity−non-treated control fluorescence intensity)} (3) Cytotoxicity Assay 96-well plate measured in the phospholipid accumulation measurement was measured by means of Plate Reader (manufactured by Molecular Devices Inc., SPECTRA max M2) with the main wavelength of 450 nm and the correct wavelength of 690 nm to calculate a Pre value. An amount of 5 μL/well of Premix WS T-1 was added to each of the 96-hole plates by which Pre measurement was conducted. After culture for 2 to 4 hours, the 96-well plate was measured as well as the Pre measurement to calculate an Aft value. Then, the background control value was subtracted from the each measured value. A value which was calculated by subtracting the Pre value from the Aft value was used, then the cell growth rate (%) was calculated by using the following calculating formula: Cell growth rate (%)=100×[(test substance OD)/(NBD-PE control OD)] (4) Determination A test dose that indicated value of 25% or more of the maximum phospholipid accumulation increase rate of amiodarone which was the positive control was determined as positive. In addition, the dose whose cell growth rate was equal to or less than 50% in the cytotoxicity assay was not used for determination of existence or nonexistence of a phospholipidosis inductive effect.

[2] = Artificial lipid membrane binding using Biacore S51 system (in vitro phospholipidosis risk); details: for Determination: Biacore lipid membrane binding, positive if corrected value 150 or more; for Corrected value of binding response (RU): compound 50 μM in PBS/5% DMSO (pH 7.4), 37° C., DOPA liposome on Sensor Chip L1
Method: 10 mM of 1,2-dioleoyl-sn-glycero-3-phosphate monosodium salt (hereinafter abbreviated as DOPA) chloroform solution was evaporated to dryness by means of an aspirator, and 0.6 mL of PBS/5% dimethyl sulfoxide (hereinafter abbreviated as DMSO) was added. The solution was fully suspended by the vortex mixer, and the freezing and thawing were repeated for 5 times. Liposome was created by the liposome preparation instrument (manufactured by Avestin Inc.) and two syringes, and was diluted to 0.5 mM with PBS/5% DMSO just prior to immobilization.
38 μl of 1×PBS was added to 2 μl of a DMSO solution (10 mM), and the 360 μl of 1×PBS/5% DMSO was further added thereto and the 50 μM of final concentration in PBS/5% DMSO was prepared and measured.
All of the following analysis used Biacore® S51 system and the measurement conditions were set by Biacore S51 Control Soft.
The measurement temperature was set to be 37° C., and PBS/5% DMSO (pH 7.4) was used as a buffer. Series S Sensor Chip L1 was used for a sensor chip. DOPA was immobilized in one of the measuring spots on the sensor surface and the central spot was used as a reference.
Immobilization of liposome was conducted at a flow rate of 10 μL/min for about 3 minutes and then the compound was added at a flow rate of 30 μL/min and the interaction was measured. The measurement conditions are as follows: • Assay buffer: PBS/5% DMSO (pH 7.4) • Measurement temperature: 37° C. • Sensor chip: Series S Sensor Chip L1 • Flow rate: 10 μL/min at the time of the liposome immobilization; 30 μL/min at the time of the measurement of interaction with the compound Regeneration: 20 mM CHAPS (3-[(3-cholamidopropyl)dimethylammonio]-1-propanesulfonate), isopropanol/aqueous 50 mM sodium hydroxide solution=40/60 (volume ratio) mixture (60 seconds) (4) Data Processing
The data processing was conducted by means of method of Abdiche et al. (Analytical biochemistry, 328, 233-243 (2004)) by using Biacore S51 Evaluation Soft.
Regarding the value of binding response (RU) in which the value of reference was subtracted, it was divided by a sample molecular weight after minute error of the DMSO concentration included in the sample solution was corrected. In addition, the value obtained here was divided by an amount of capture at the time of the cycle because the value obtained here was proportional to the amount of capture of the liposome and the value was multiplied by a million to be considered as a corrected value (Corrected value=1,000,000×RU (test compound)/molecular quantity (test compound) RU (liposome)).
Propranolol, amiodarone, desipramine, imipramine and procaine were added as the controls, and it was recognized that the variation of the binding response was within about 10 to 15%.
The compound wherein a value of the binding response after the correction was 150 or more was determined as positive.

CXCR4 = target: T1, CXCR4 (Homo sapiens, UniProt P61073); test: Inhibition of binding human SDF-1 (125I-SDF-1) to CEM cells; details: 125I-SDF-1 binding to human T cell strain CEM cells, 4° C., 60 minutes
T1 construct: a human T cell strain in which CXCR4 is known to be expressed; endogenous in cells; host or cells: CEM cells (human T cell strain)
Method: Specifically, as a system of screening a compound that inhibits the binding between SDF-1 and CXCR4, for example a system of measuring the binding between iodine-labeled SDF-1 and a human T cell strain in which CXCR4 is known to be expressed is operable.
To human T cell strain CEM cells in a binding buffer (containing HEPES and BSA), the test compound and ^125I-SDF-1 (NEN) were added and the mixture was incubated at 4° C. for 60 minutes. The reacted CEM cells were rapidly filtrated with a GF/B membrane filter plate (Packard) to adsorb. The plate was washed with phosphate buffered saline (hereinafter abbreviated to PBS) three times and then dried. Microscint+20 (Packard) was added thereto. An amount of the radioactivity bound to the CEM cells was measured using Top Count (Packard) and inhibition (%) of the test compound was calculated according to the following equation: Inhibition={(Et−Ea)/(Et−Ec)}×100
Et: Amount of radioactivity when the test compound is not added,
Ec: Amount of radioactivity when non-radioactive SDF-1 (Pepro Tech) is added in an amount of 1,000 times as much as ^125I-SDF-1 as a test compound,
Ea: Amount of radioactivity when the test compound is added.

T1 sequence (P61073 whole entry): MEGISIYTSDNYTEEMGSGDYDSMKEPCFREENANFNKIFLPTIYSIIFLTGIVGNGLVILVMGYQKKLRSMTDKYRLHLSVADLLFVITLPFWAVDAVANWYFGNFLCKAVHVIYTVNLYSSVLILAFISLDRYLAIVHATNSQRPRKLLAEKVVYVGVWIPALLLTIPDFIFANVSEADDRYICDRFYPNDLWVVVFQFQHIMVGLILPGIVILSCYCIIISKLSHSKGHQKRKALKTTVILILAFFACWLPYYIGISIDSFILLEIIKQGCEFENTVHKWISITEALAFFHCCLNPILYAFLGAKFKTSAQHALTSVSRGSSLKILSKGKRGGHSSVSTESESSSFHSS

## CCC(CC)N1CCC2(CCN(Cc3ccc(CN(Cc4ncc[nH]4)Cc4nccn4CCCC(=O)O)cc3)C2)CC1 [Example 38 (3), 4-(2-{[(4-{[8-(1-ethylpropyl)-2,8-diazaspiro[4.5]dec-2-yl]methyl]benzyl)(1H-imidazol-2-ylmethyl)amino]methyl}-1H-imidazol-1-yl)butanoic Acid]
[1]
  Rate of increase of phopholipid accumulation (%): 11%
  Determination: Negative (A test dose that indicated value of 25% or more of the maximum phospholipid accumulation increase rate of amiodarone which was the positive control was determined as positive)
[2]
  Determination: Negative (The compound wherein a value of the binding response after the correction was 150 or more was determined as positive)
  Corrected value of binding response (RU): 98.9 RU
CXCR4
  IC50: 0.012 µM

## O=C(O)CCn1ccnc1CN(Cc1ccc(CN2CCC3(CCN(C4CCCCC4)CC3)C2)cc1)Cc1ncc[nH]1 [Example 9 (1), 3-(2-{[{4-[(8-cyclohexyl-2,8-diazaspiro[4.5]dec-2-yl)methyl]benzyl}(1H-imidazol-2-ylmethyl)amino]methyl}-1H-imidazol-1-yl)propionic Acid]
[1]
  Rate of increase of phopholipid accumulation (%): 6%
  Determination: Negative (A test dose that indicated value of 25% or more of the maximum phospholipid accumulation increase rate of amiodarone which was the positive control was determined as positive)
[2]
  Determination: Negative (The compound wherein a value of the binding response after the correction was 150 or more was determined as positive)
  Corrected value of binding response (RU): 52.0 RU
CXCR4
  IC50: 0.0034 µM

## CCOC(=O)CCCn1ccnc1CN(Cc1ccc(CN2CCC3(CCN(CC(C)C)CC3)C2)cc1)Cc1ncc[nH]1 [Example 37 (1), Ethyl 4-(2-{[(1H-imidazol-2-ylmethyl){4-[(8-isobutyl-2,8-diazaspiro[4.5]dec-2-yl)methyl]benzyl}amino]methyl}-1 H-imidazol-1-yl)butanoate]
CXCR4
  IC50: 0.0137 µM

## CCOC(=O)CCCn1ccnc1CN(Cc1ccc(CN2CCC3(CCN(C(CC)CC)CC3)C2)cc1)Cc1ncc[nH]1 [Example 37 (3), Ethyl 4-(2-{[(4-{[8-(1-ethylpropyl)-2,8-diazaspiro[4.5]dec-2-yl]methyl]benzyl)(1 H-imidazol-2-ylmethyl)amino]methyl}-1H-imidazol-1-yl)butanoate]
CXCR4
  IC50: 0.0118 µM

## O=C(O)Cn1ccnc1CN(Cc1ccc(CN2CCC3(CCN(C4CCCCC4)CC3)C2)cc1)Cc1ncc[nH]1 [Example 9, (2-{[{4-[(8-cyclohexyl-2,8-diazaspiro[4.5]dec-2-yl)methyl]benzyl}(1H-imidazol-2-ylmethyl)amino]methyl}-1H-imidazol-1-yl)acetic Acid]
[1]
  Rate of increase of phopholipid accumulation (%): 10%
  Determination: Negative (A test dose that indicated value of 25% or more of the maximum phospholipid accumulation increase rate of amiodarone which was the positive control was determined as positive)
[2]
  Determination: Negative (The compound wherein a value of the binding response after the correction was 150 or more was determined as positive)
  Corrected value of binding response (RU): 59.0 RU
CXCR4
  IC50: 0.0048 µM

## CC(OC(=O)CCn1ccnc1CN(Cc1ccc(CN2CCC3(CCN(C4CCCCC4)CC3)C2)cc1)Cc1ncc[nH]1)OC(=O)OC1CCCCC1 (centres unmarked) [Example 36, 1-{[(cyclohexyloxy)carbonyl]oxy}ethyl 3-(2-{[{4-[(8-cyclohexyl-2,8-diazaspiro[4.5]dec-2-yl)methyl]benzyl}(1H-imidazol-2-ylmethyl)amino]methyl}-1H-imidazol-1-yl)propanoate]
CXCR4
  IC50: 0.0204 µM

## CC(C)CN1CCC2(CC1)CCN(Cc1ccc(CN(Cc3ncc[nH]3)Cc3nccn3CCCC(=O)O)cc1)C2 [Example 38 (1), 4-(2-{[(1H-imidazol-2-ylmethyl){4-[(8-isobutyl-2,8-diazaspiro[4.5]dec-2-yl)methyl]benzyl}amino]methyl}-1H-imidazol-1-yl)butanoic Acid]
[1]
  Rate of increase of phopholipid accumulation (%): 8%
  Determination: Negative (A test dose that indicated value of 25% or more of the maximum phospholipid accumulation increase rate of amiodarone which was the positive control was determined as positive)
[2]
  Determination: Negative (The compound wherein a value of the binding response after the correction was 150 or more was determined as positive)
  Corrected value of binding response (RU): 5.4 RU
CXCR4
  IC50: 0.0187 µM
